Data on 19 molecules can be found in ChEMBL document CHEMBL4715902, “Thiophene-Pyrazolourea Derivatives as Potent, Orally Bioavailable, and Isoform-Selective JNK3 Inhibitors” (ACS Med Chem Lett, 2021).

Series [1] deals with Mitogen-activated protein kinase 14 (Homo sapiens, UniProt Q16539). Put plainly: Inhibition of P38alpha (unknown origin).
A short description of series [2]: Plasma concentration in C57BL/6J mouse at 10 mg/kg, po measured after 1 hr by LC-MS/MS analysis. The format is ADME, organism-based.
Series [3] can be described thus: Brain concentration in C57BL/6J mouse at 10 mg/kg, po measured after 1 hr by LC-MS/MS analysis. Type of series: ADME, organism-based. To be noted: read-out: Drug uptake.
Series [4] is described as follows: Metabolic stability in mouse liver microsomes assessed as half life. The format is ADME, Microsome.
In a further series the test system is SH-SY5Y. Kind of series: Cytotoxicity against human SH-SY5Y cells assessed as cell viability at 10 uM after 48 hrs by MTT assay relative to control. Type of series: cell-based. (Tetrazolium assays rely on reduction of a dye to a coloured formazan, in cell work by metabolically active cells.)
Series [5] can be described thus: Metabolic stability in human liver microsomes assessed as half life. The format is ADME, Microsome.
Series [6] deals with Mitogen-activated protein kinase 10 (Rattus norvegicus) (UniProt P49187). Kind of series: Inhibition of JNK3 in rat primary neuron assessed as reduction in phosphorylation of APP at T688 residue at 10 nM incubated for 30 mins by Western blot analysis. To be noted: dose nM 10, time 30.0 min.

Activity calls are given as the source filed them. No cut-off for these calls is given here.

Mitogen-activated protein kinase 14, sequence (Q16539 whole entry): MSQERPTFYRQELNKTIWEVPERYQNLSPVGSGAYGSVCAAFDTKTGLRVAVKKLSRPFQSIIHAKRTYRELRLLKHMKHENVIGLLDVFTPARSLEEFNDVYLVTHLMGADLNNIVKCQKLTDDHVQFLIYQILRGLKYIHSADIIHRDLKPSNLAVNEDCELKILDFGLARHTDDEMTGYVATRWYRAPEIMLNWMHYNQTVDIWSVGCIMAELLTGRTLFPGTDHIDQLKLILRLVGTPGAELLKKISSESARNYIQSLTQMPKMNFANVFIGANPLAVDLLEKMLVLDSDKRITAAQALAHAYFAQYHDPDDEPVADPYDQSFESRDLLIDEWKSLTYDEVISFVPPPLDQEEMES
Mitogen-activated protein kinase 10 (Rattus norvegicus), sequence (P49187 whole entry): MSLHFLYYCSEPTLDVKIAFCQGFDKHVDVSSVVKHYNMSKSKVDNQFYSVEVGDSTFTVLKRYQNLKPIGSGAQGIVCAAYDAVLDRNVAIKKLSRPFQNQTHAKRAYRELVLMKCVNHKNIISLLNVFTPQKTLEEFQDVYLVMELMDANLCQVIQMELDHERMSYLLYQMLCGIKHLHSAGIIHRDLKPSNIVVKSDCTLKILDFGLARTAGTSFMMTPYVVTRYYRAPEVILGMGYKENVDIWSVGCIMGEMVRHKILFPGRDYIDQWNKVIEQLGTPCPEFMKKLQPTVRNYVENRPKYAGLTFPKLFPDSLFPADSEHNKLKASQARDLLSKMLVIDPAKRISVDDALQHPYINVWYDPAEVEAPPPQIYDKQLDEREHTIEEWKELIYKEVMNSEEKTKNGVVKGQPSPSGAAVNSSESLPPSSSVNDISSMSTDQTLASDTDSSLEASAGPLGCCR

As usually defined, the IC50 is the concentration needed to halve the response being measured. The molecule `O=C(Nc1cnn(-c2csc(C(=O)NC3COC3)c2)c1)Nc1ccccc1Cl` yielded an IC50 in series [1] greater than 20 µM. Besides, the concentration at 1 h in series [2] is 960 nM; in series [3], 1080 nM. Further, the t1/2 is recorded as 24 min in series [4] and 66 min in series [5]. In addition, the Activity with SH-SY5Y is 104%. In addition, the inhibition entry in series [6] was “Active”.

In the case of `O=C(Nc1cnn(-c2cc(C(=O)NC3CNC3)cs2)c1)Nc1ccccc1Cl`, the IC50 in series [1] was greater than 20 µM.

With `Cc1sc(C(=O)NC2COC2)cc1-n1cc(NC(=O)Nc2c(F)cccc2Cl)cn1`, the t1/2 in series [4] turned out to be 57 min; in series [5] it was 110 min. Moreover, the Activity in the series with SH-SY5Y was determined as 111%.

Regarding `O=C(Nc1cnn(-c2csc(C(=O)NC3COC3)c2)c1)Nc1c(F)cccc1Cl`, the t1/2 was found to be 72 min in series [4] and 100 min in series [5]. Moreover, the Activity in the series on SH-SY5Y was determined as 102%.

Take `CN1CCC(NC(=O)c2cc(-n3cc(NC(=O)Nc4ccccc4Cl)cn3)cs2)CC1`: the t1/2 in series [4] turned out to be 15 min; in series [5], 92 min. Further, the Activity in the series with SH-SY5Y was 89%.

In series [1], `CN1CCC[C@H]1CNC(=O)c1cc(-n2cc(NC(=O)Nc3ccccc3Cl)cn2)cs1` returned a half-inhibitory concentration (IC50) greater than 20 µM.

In turn, `O=C(Nc1cnn(-c2csc(C(=O)N[C@@H]3CCOC3)c2)c1)Nc1ccccc1Cl` showed an IC50 in series [1] greater than 20 µM. For the same molecule, the t1/2 in series [4] is 13 min; in series [5], 33 min. Further, the Activity in the series with SH-SY5Y is on record as 112%.

In series [1], `CN1CC[C@H](CNC(=O)c2cc(-n3cc(NC(=O)Nc4ccccc4Cl)cn3)cs2)C1` showed an IC50 greater than 20 µM.

As to `O=C(Nc1cnn(-c2csc(C(=O)NC[C@H]3CCOC3)c2)c1)Nc1ccccc1Cl`, the IC50 in series [1] was greater than 20 µM.

In series [1], `CC(C)N1CC[C@H](NC(=O)c2cc(-n3cc(NC(=O)Nc4ccccc4Cl)cn3)cs2)C1` yielded a 50% inhibitory concentration (IC50) greater than 20 µM.

`CN1CC[C@@H](NC(=O)c2cc(-n3cc(NC(=O)Nc4ccccc4Cl)cn3)cs2)C1`: the IC50 in series [1] is greater than 20 µM.

Regarding `O=C(Nc1cnn(-c2csc(C(=O)NC3CCOCC3)c2)c1)Nc1ccccc1Cl`, the t1/2 in series [4] is reported as 16 min. Moreover, the Activity with SH-SY5Y turned out to be 97%.

Turning to `Cc1sc(C(=O)N[C@@H]2CCOC2)cc1-n1cc(NC(=O)Nc2c(F)cccc2Cl)cn1`, the t1/2 in series [4] was determined as 38 min; in series [5] it was 40 min. For the same molecule, in the series on SH-SY5Y, the Activity is given as 114%. The inhibition result in series [6] was “Active”.

Turning to `CN1CC[C@H](NC(=O)c2cc(-n3cc(NC(=O)Nc4ccccc4Cl)cn3)cs2)C1`, in series [1], the IC50 was greater than 20 µM. Further, the Activity in the series on SH-SY5Y is recorded as 94%. Besides, in series [5], the t1/2 stood at 54 min.

The molecule `O=C(Nc1cnn(-c2csc(C(=O)N[C@@H]3CCNC3)c2)c1)Nc1ccccc1Cl` had an IC50 in series [1] greater than 20 µM.

In turn, `[2H]C([2H])([2H])N1CC[C@@H](NC(=O)c2cc(-n3cc(NC(=O)Nc4ccccc4Cl)cn3)cs2)C1` displayed a 50% inhibitory concentration (IC50) in series [1] greater than 20 µM.

For `O=C(Nc1cnn(-c2csc(C(=O)NC3COC3)c2)c1)Nc1ccc(F)cc1Cl`, the t1/2 in series [4] is 68 min; in series [5] it was greater than 120 min. In addition, the Activity in the series with SH-SY5Y is recorded as 104%. Moreover, in series [6], the inhibition entry is “Active”.

In the case of `O=C(Nc1cnn(-c2csc(C(=O)NC3CC3)c2)c1)Nc1ccccc1Cl`, the t1/2 in series [4] is 35 min; in series [5], 49 min. For the same molecule, the Activity with SH-SY5Y is 103%.

Consider `O=C(Nc1cnn(-c2csc(C(=O)NCC3CCOCC3)c2)c1)Nc1ccccc1Cl`, for which the t1/2 is reported as 15 min in series [4] and 8 min in series [5]. Besides, the Activity in the series with SH-SY5Y turned out to be 95%.
